Measured values as given in patent US8288342B2, “Methods for treating vasomotor symptoms in castrated prostatic cancer patients with low dose cyproterone acetate” (priority 2008, dated 2012).

Key:
[1] = system: quality of life of prostate cancer patients; details: 367 evaluable patients; oral and i.m., doses varied; cited from earlier work
[2] = system: post-orchiectomy hot flashes in prostate cancer subjects; details: CPA 300 mg daily, 3 weeks, 12 post-orchiectomy subjects; cited from earlier work
[3] = system: hot flashes in castrated prostatic cancer patients; assay: Prior study of 50 mg and 100 mg CPA: hot flash efficacy; type: in vivo, human; details: N 236
Experimental: The results of this study were compared with results from a prior study in which the efficacy of 50 mg and 100 mg of CPA was investigated. Efficacy data for the 50 mg and 100 mg studies showing a reduction in average daily number of moderate to severe hot flashes, and a reduction in average severity of hot flashes is shown in FIGS. 6 and 7, respectively. A comparison of the percent of patients with complete disappearance of all hot flashes at 12 weeks of treatment across studies is shown in Table 10.

[4] = system: hot flashes following surgical or medical castration of prostate cancer patients; assay: Randomized, multicenter, placebo-controlled Phase 2 trial of CPA 5, 15, 25 mg/day: hot flash efficacy; type: in vivo, human; details: for Reduction in average severity of moderate to severe hot flashes compared to placebo (positive) / Reduction in weekly average severity of hot flashes compared to placebo (Table 7 analysis, positive) / LS Mean Change in Weekly Average Severity of All Hot Flashes / LS Mean Change in Weekly Average Severity of Moderate to Severe Hot Flashes: 4-point scale; for Fewer weekly moderate to severe hot flashes compared to placebo (reduction, positive): baseline to end-of-treatment
Text: The inclusion criteria included male (>18 years) prostate cancer patients who have undergone bilateral orchiectomy or have used or are using LHRH analogue drug([…]®, Aberelix®), and have complained of bothersome hot flashes as defined by the occurrence of at least 3 moderate to severe hot flashes per day or 21 per week at baseline. Hot flashes were present for at least 1 month prior to study entry. […] A total of 121 clinical sites in the United States and Canada participated in this Phase 2 study with 77 sites enrolling at least one subject. The overall study duration for each subject was approximately 19 weeks, which included a screening period of up to 4 weeks, a one-week placebo run-in period, a 12-week double-blind period, and a follow-up telephone call two weeks after the last dose of study medication. After providing informed consent on the first day of the screening period, all subjects had medical and hot flash history recorded, a physical examination, a chest x-ray and Doppler to assess known thromboembolic risk factors, an ECG to evaluate cardiac risks, and clinical laboratory evaluations. Once all results of tests conducted during the screening period were obtained, subjects who met all of the inclusion criteria and none of the exclusion criteria were eligible to enter the one-week, single-blind, placebo run-in period. […] CPA 5, 15, or 25 mg/day or placebo. After beginning study medication, subjects returned for study visits at weeks 2, 4, 8, and 12. Two weeks after the final treatment visit, a telephone follow-up call was conducted to record and evaluate adverse events (“AE”s) since the last study visit. Each subject received one tablet daily, which was administered orally. All tablets were blinded and identical in appearance. The formulation used in this study was an immediate release product containing 5, 15, or 25 mg of CPA. The CPA tablets are described in Example 1. The dosage form for the CPA used in this study was an identical, blind, modified oval, scored, immediate release oral tablet for each strength, consisting of cyproterone acetate, lactose, microcrystalline cellulose, crospovidone, sodium lauryl sulfate, silicon dioxide, magnesium stearate, and stearic acid. Placebo tablets included the same constituents but without CPA and were identical in appearance to the active tablets. During the single-blind placebo run-in period, subjects received one medication bottle containing a one week+2 day supply (9 tablets total) of single-blind placebo tablets and a copy of the Subject Information Sheet. Subjects were instructed to take one tablet each morning by mouth, preferably with a meal, at approximately the same time each day. Subjects were not made aware that they were receiving placebo. Following randomization at Visit 2, all enrolled and eligible subjects were randomized equally to one of four treatment groups (CPA 5, 15, 25 mg, or placebo) and received the study medication on the same day. At treatment visits 0, 4, and 8 weeks following initiation, each subject received one medication bottle containing a one-month supply+7 (35 tablets total) of double-blind […] tablets and a copy of the Subject Information Sheet. Subjects were instructed to take one tablet each morning by mouth, preferably with a meal, at approximately the same time each day. This study was designed to evaluate three doses of CPA (5 mg, 15 mg, and 25 mg) for the treatment of hot flashes in prostate cancer patients. Observation of a reduction in the frequency and severity of hot flashes was considered a reasonable and reliable indicator of the efficacy of active treatment. The primary measure of efficacy was the change in weekly frequency and weekly average severity of moderate to severe hot flashes from the placebo run-in period to the final week of treatment. […]

[5] = all three treatment groups (5, 15, 25 mg/day)

CC(=O)O[C@]1(C(C)=O)CC[C@H]2[C@@H]3C=C(Cl)C4=CC(=O)[C@@H]5C[C@@H]5[C@]4(C)[C@H]3CC[C@@]21C [CPA, cyproterone acetate]
Evaluable patients with general improvement in subjective assessment of quality of life [1]: 70%
Frequency of hot flashes [2]: significantly reduced
% With Complete Disappearance of All Hot Flashes at 12 Weeks/End-of-Treatment ([3]; CPA 50 mg): 38.5%
% With Complete Disappearance of All Hot Flashes at 12 Weeks/End-of-Treatment ([3]; CPA 100 mg): 46.0%
% With Complete Disappearance of All Hot Flashes at 12 Weeks/End-of-Treatment ([4]; CPA 5 mg, N 80): 27.5%
Proportion of subjects with total elimination of moderate to severe hot flashes (Yes) ([4]; CPA 5 mg/day): 27.27%
Proportion of subjects without total elimination of moderate to severe hot flashes (No) ([4]; CPA 5 mg/day): 72.73%
Reduction in average frequency of all hot flashes compared to placebo (positive) ([4]; CPA 5 mg/day): 27.73 units
Subjects without total elimination of moderate to severe hot flashes (No), number ([4]; CPA 5 mg/day): 56
LS Mean Change in Total Weekly Moderate to Severe Hot Flash Frequency ([4]; CPA 5 mg/day oral, Baseline (Day 0) to End-of-Treatment (Day 84)): −40.47
Subjects with total elimination of moderate to severe hot flashes (Yes), number ([4]; CPA 5 mg/day, out of 77): 21
Reduction in average severity of moderate to severe hot flashes compared to placebo (positive) ([4]; CPA 5 mg/day): 0.86 units
Reduction in weekly average severity of hot flashes compared to placebo (Table 7 analysis, positive) ([4]; CPA 5 mg/day): 0.60 units
Difference from placebo in change of Total Weekly Moderate to Severe Hot Flash Frequency ([4]; CPA 5 mg/day, Day 0 to Day 84): −23.08
Difference from placebo in change of Weekly Average Frequency of All Hot Flashes ([4]; CPA 5 mg/day, Day 0 to Day 84): −27.73
Difference from placebo in change of Weekly Average Severity of All Hot Flashes ([4]; CPA 5 mg/day, Day 0 to Day 84): −0.6
Difference from placebo in change of Weekly Average Severity of Moderate to Severe Hot Flashes ([4]; CPA 5 mg/day, Day 0 to Day 84): −0.86
LS Mean Change in Weekly Average Frequency of All Hot Flashes ([4]; CPA 5 mg/day, Day 0 to Day 84): −50.67
LS Mean Change in Weekly Average Severity of All Hot Flashes ([4]; CPA 5 mg/day, Day 0 to Day 84): −0.76
LS Mean Change in Weekly Average Severity of Moderate to Severe Hot Flashes ([4]; CPA 5 mg/day, Day 0 to Day 84): −1.06
Fewer weekly moderate to severe hot flashes compared to placebo (reduction, positive) ([4]; CPA 5 mg/day): 23.08
% With Complete Disappearance of All Hot Flashes at 12 Weeks/End-of-Treatment ([4]; CPA 15 mg, N 96): 32.3%
Proportion of subjects with total elimination of moderate to severe hot flashes (Yes) ([4]; CPA 15 mg/day): 32.63%
Proportion of subjects without total elimination of moderate to severe hot flashes (No) ([4]; CPA 15 mg/day): 67.37%
Reduction in average frequency of all hot flashes compared to placebo (positive) ([4]; CPA 15 mg/day): 32.69 units
Subjects without total elimination of moderate to severe hot flashes (No), number ([4]; CPA 15 mg/day): 64
LS Mean Change in Total Weekly Moderate to Severe Hot Flash Frequency ([4]; CPA 15 mg/day oral, Day 0 to Day 84): −45.05
Subjects with total elimination of moderate to severe hot flashes (Yes), number ([4]; CPA 15 mg/day, out of 95): 31
Reduction in average severity of moderate to severe hot flashes compared to placebo (positive) ([4]; CPA 15 mg/day): 1.13 units
Reduction in weekly average severity of hot flashes compared to placebo (Table 7 analysis, positive) ([4]; CPA 15 mg/day): 0.78 units
Difference from placebo in change of Total Weekly Moderate to Severe Hot Flash Frequency ([4]; CPA 15 mg/day, Day 0 to Day 84): −27.66
Difference from placebo in change of Weekly Average Frequency of All Hot Flashes ([4]; CPA 15 mg/day, Day 0 to Day 84): −32.69
Difference from placebo in change of Weekly Average Severity of All Hot Flashes ([4]; CPA 15 mg/day, Day 0 to Day 84): −0.78
Difference from placebo in change of Weekly Average Severity of Moderate to Severe Hot Flashes ([4]; CPA 15 mg/day, Day 0 to Day 84): −1.13
LS Mean Change in Weekly Average Frequency of All Hot Flashes ([4]; CPA 15 mg/day, Day 0 to Day 84): −55.63
LS Mean Change in Weekly Average Severity of All Hot Flashes ([4]; CPA 15 mg/day, Day 0 to Day 84): −0.94
LS Mean Change in Weekly Average Severity of Moderate to Severe Hot Flashes ([4]; CPA 15 mg/day, Day 0 to Day 84): −1.33
Fewer weekly moderate to severe hot flashes compared to placebo (reduction, positive) ([4]; CPA 15 mg/day): 27.66
% With Complete Disappearance of All Hot Flashes at 12 Weeks/End-of-Treatment ([4]; CPA 25 mg, N 86): 36.1%
Proportion of subjects with total elimination of moderate to severe hot flashes (Yes) ([4]; CPA 25 mg/day): 36.05%
Proportion of subjects without total elimination of moderate to severe hot flashes (No) ([4]; CPA 25 mg/day): 63.95%
Reduction in average frequency of all hot flashes compared to placebo (positive) ([4]; CPA 25 mg/day): 33.93 units
Subjects without total elimination of moderate to severe hot flashes (No), number ([4]; CPA 25 mg/day): 55
LS Mean Change in Total Weekly Moderate to Severe Hot Flash Frequency ([4]; CPA 25 mg/day oral, Day 0 to Day 84): −46.14
Subjects with total elimination of moderate to severe hot flashes (Yes), number ([4]; CPA 25 mg/day, out of 86): 31
Reduction in average severity of moderate to severe hot flashes compared to placebo (positive) ([4]; CPA 25 mg/day): 0.94 units
Reduction in weekly average severity of hot flashes compared to placebo (Table 7 analysis, positive) ([4]; CPA 25 mg/day): 0.77 units
Difference from placebo in change of Total Weekly Moderate to Severe Hot Flash Frequency ([4]; CPA 25 mg/day, Day 0 to Day 84): −28.75
Difference from placebo in change of Weekly Average Frequency of All Hot Flashes ([4]; CPA 25 mg/day, Day 0 to Day 84): −33.93
Difference from placebo in change of Weekly Average Severity of All Hot Flashes ([4]; CPA 25 mg/day, Day 0 to Day 84): −0.77
Difference from placebo in change of Weekly Average Severity of Moderate to Severe Hot Flashes ([4]; CPA 25 mg/day, Day 0 to Day 84): −0.94
LS Mean Change in Weekly Average Frequency of All Hot Flashes ([4]; CPA 25 mg/day, Day 0 to Day 84): −56.87
LS Mean Change in Weekly Average Severity of All Hot Flashes ([4]; CPA 25 mg/day, Day 0 to Day 84): −0.93
LS Mean Change in Weekly Average Severity of Moderate to Severe Hot Flashes ([4]; CPA 25 mg/day, Day 0 to Day 84): −1.14
Fewer weekly moderate to severe hot flashes compared to placebo (reduction, positive) ([4]; CPA 25 mg/day): 28.75
Treating all hot flashes, including mild, moderate, and severe ([4]; all three doses (5, 15, 25 mg/day)): effective
Total weekly frequency of moderate to severe hot flashes over placebo [4, 5]: statistically significant reduction
Weekly average frequency of all hot flashes over placebo [4, 5]: statistically significant reduction
Weekly average severity of all hot flashes over placebo [4, 5]: statistically significant reduction
Weekly average severity of moderate to severe hot flashes over placebo [4, 5]: statistically significant reduction
